{"source": "patent US9119858B2", "about": "“Compositions and methods for treating or preventing anthracycline induced cardiotoxicity” (Genesys Research Institute, priority 2012, dated 2015)", "key": {"doxorubicin injured mice [1]": {"test_system": "doxorubicin injured mice", "settings": "ten weeks after initiation of doxorubicin treatment", "method": "(§1) After the completion of doxorubicin treatment, mice were subsequently treated with either Lapatinib alone (100 mg/kg, oral gavage, daily) or Rapamycin alone (6 mg/kg, i.p., daily). Survival was monitored. Cardiac function was assessed by hemodynamic measurements."}, "doxorubicin treated mice [2]": {"test_system": "doxorubicin treated mice"}, "doxorubicin injured mice [3]": {"test_system": "doxorubicin injured mice", "assay": "Cardiac output by hemodynamic measurements in doxorubicin injured mice treated with Lapatinib or Rapamycin", "assay_type": "in vivo", "method": "as §1"}, "doxorubicin treated mice [4]": {"test_system": "doxorubicin treated mice", "assay": "Echocardiography of doxorubicin and doxorubicin+lapatinib treated mice", "settings": "FIG. 3", "experimental": "(§2) Female FVB/n mice between 10 and 12 weeks old were treated with doxorubicin (2 mg/kg) by intraperitoneal injection (i.p.) twice a week for 7 weeks. […] After completion of the doxorubicin treatment cycle, the mice were subsequently treated with various doses of lapatinib (25, 50, and 100 mg/kg, given by oral gavage, daily) or with vehicle control.\n(§3) Cardiac function of the doxorubicin and doxorubicin+lapatinib treated mice was evaluated by echocardiography."}, "doxorubicin treated mice [5]": {"test_system": "doxorubicin treated mice", "assay": "Hemodynamic measurements (dP/dtmax, dP/dtmin) in doxorubicin and doxorubicin+lapatinib treated mice", "settings": "FIG. 4", "experimental": "as §2, §3"}, "[6]": {"test_system": "doxorubicin+BEZ235 treated mice", "assay": "Echocardiography and heart/lung weight ratios in mice co-treated with doxorubicin, BEZ235 and lapatinib", "settings": "lapatinib co-treatment of doxorubicin+BEZ235 treated mice; FIG. 6", "experimental": "FVB/n female mice were treated with doxorubicin (2 mg/kg, i.p.) twice a week, PI3 kinase-mTOR inhibitor BEZ235 (35-50 mg/kg, oral, daily) and lapatinib (25, 50 or 100 mg/kg, oral, daily). Cardiac function was monitored by echocardiography."}, "[7]": {"settings": "three weeks after initiation of lapatinib treatment, doxorubicin+lapatinib vs doxorubicin treated mice"}, "[8]": {"settings": "doxorubicin+lapatinib treated vs control mice"}, "[9]": {"settings": "nine weeks after initiation of doxorubicin treatment, doxorubicin treated versus control mice"}, "[10]": {"settings": "doxorubicin treated vs. control mice"}}, "note": "Like-named read-outs stand apart in the source and are kept apart here."}
{"smiles": "CO[C@H]1C[C@@H]2CC[C@@H](C)[C@@](O)(O2)C(=O)C(=O)N2CCCC[C@H]2C(=O)O[C@H]([C@H](C)C[C@@H]2CC[C@@H](O)[C@H](OC)C2)CC(=O)[C@H](C)/C=C(\\C)[C@@H](O)[C@@H](OC)C(=O)[C@H](C)C[C@H](C)/C=C/C=C/C=C/1C", "note": "[Rapamycin]", "values": [{"measurement": "survival", "setting": "doxorubicin injured mice [1]; Rapamycin 6 mg/kg i.p. daily after doxorubicin", "value": 63, "unit": "%"}]}
{"smiles": "CS(=O)(=O)CCNCc1ccc(-c2ccc3ncnc(Nc4ccc(OCc5cccc(F)c5)c(Cl)c4)c3c2)o1", "note": "[lapatinib, N-[3-chloro-4-[(3-fluorophenyl)methoxy]phenyl]-6-[5-[(2-methylsulfonylethylamino)methyl]-2-furyl]quinazolin-4-amine]", "values": [{"measurement": "survival", "setting": "doxorubicin treated mice [2]; 64 days after initiation of doxorubicin treatment, lapatinib 25 mg/kg oral gavage daily after the doxorubicin cycle", "value": 100, "unit": "%"}, {"measurement": "survival", "setting": "doxorubicin treated mice [2]; 64 days after initiation of doxorubicin treatment, lapatinib 50 mg/kg oral gavage daily after the doxorubicin cycle", "value": 83, "unit": "%"}, {"measurement": "survival", "setting": "doxorubicin treated mice [2]; 64 days after initiation of doxorubicin treatment, lapatinib 100 mg/kg oral gavage daily after the doxorubicin cycle", "value": 71, "unit": "%"}, {"measurement": "survival", "setting": "doxorubicin treated mice [2]; 70 days after initiation of doxorubicin treatment, lapatinib 100 mg/kg oral gavage daily after the doxorubicin cycle", "value": 55, "unit": "%"}, {"measurement": "survival of doxorubicin treated mice (FIG. 1)", "setting": "doxorubicin treated mice [2]; lapatinib 25, 50 and 100 mg/kg oral gavage daily vs vehicle control", "value": "improved survival"}, {"measurement": "survival", "setting": "doxorubicin injured mice [1]; Lapatinib 100 mg/kg oral gavage daily after doxorubicin", "value": 71, "unit": "%"}, {"measurement": "cardiac output", "setting": "doxorubicin injured mice [3]; Lapatinib (100 mg/kg oral daily) treated doxorubicin injured mice vs. non-treated control mice", "value": "No difference"}, {"measurement": "EF %", "setting": "doxorubicin treated mice [4]; [7]", "value": "reversed these effects"}, {"measurement": "ESV", "setting": "doxorubicin treated mice [4]; [7]", "value": "reversed these effects"}, {"measurement": "dP/dtmax", "setting": "doxorubicin treated mice [5]; [8]", "value": "not different"}, {"measurement": "dP/dtmin", "setting": "doxorubicin treated mice [5]; [8]", "value": "not different"}, {"measurement": "EF %", "setting": "[6]", "value": "reversed these effects"}, {"measurement": "end-diastolic volume (EDV)", "setting": "[6]", "value": "reversed these effects"}, {"measurement": "end-systolic volume (ESV)", "setting": "[6]", "value": "reversed these effects"}, {"measurement": "heart weight to body weight ratio (HW/BW)", "setting": "[6]", "value": "reversed these effects"}, {"measurement": "lung to body weight ratio", "setting": "[6]", "value": "reversed these effects"}, {"measurement": "relative wall thickness (RWth)", "setting": "[6]", "value": "reversed these effects"}]}
{"smiles": "COc1cccc2c1C(=O)c1c(O)c3c(c(O)c1C2=O)C[C@@](O)(C(=O)CO)C[C@@H]3O[C@H]1C[C@H](N)[C@H](O)[C@H](C)O1", "note": "[doxorubicin]", "values": [{"measurement": "survival", "setting": "doxorubicin treated mice [2]; 64 days after initiation of doxorubicin treatment, doxorubicin 2 mg/kg i.p. twice a week for 7 weeks, then vehicle control, female FVB/n mice", "value": 68, "unit": "%"}, {"measurement": "survival", "setting": "doxorubicin treated mice [2]; 70 days after initiation of doxorubicin treatment, doxorubicin 2 mg/kg i.p. twice a week for 7 weeks, then vehicle control", "value": 34, "unit": "%"}, {"measurement": "survival", "setting": "doxorubicin injured mice [1]; Solvent treated doxorubicin injured mice (doxorubicin 2 mg/kg i.p. twice a week for 7 weeks)", "value": 43, "unit": "%"}, {"measurement": "cardiac output", "setting": "doxorubicin injured mice [3]; Solvent treated doxorubicin injured mice vs. non-treated control mice, ten weeks", "value": "significantly decreased"}, {"measurement": "EF %", "setting": "doxorubicin treated mice [4]; [9]", "value": "decreased"}, {"measurement": "ESV", "setting": "doxorubicin treated mice [4]; [9]", "value": "significantly increased"}, {"measurement": "dP/dtmax", "setting": "doxorubicin treated mice [5]; [10]", "value": "significantly decreased"}, {"measurement": "dP/dtmin", "setting": "doxorubicin treated mice [5]; [10]", "value": "significantly decreased"}]}
